Test results taken from patent US20100061994A1, “MEDICAL USES OF 39-DESMETHOXYRAPAMYCIN AND ANALOGUES THEREOF” (priority 2005, published 2010).
Like-named read-outs stand apart in the source and are kept apart here.

Experiments:
[1] = tested on: 1138L; experiment: Monolayer proliferation assay Protocol 1 (propidium iodide); format: cell-based, human; conditions: 4 days, mean of duplicate experiments
Description: (§1) In vitro evaluation of compounds for anticancer activity in a panel of 12 human tumour cell lines in a monolayer proliferation assay were carried out at the Oncotest Testing Facility, Institute for Experimental Oncology, Oncotest GmbH, Freiburg.
(§2) A modified propidium iodide assay was used to assess the effects of the test compound(s) on the growth of twelve human tumor cell lines (Dengler et al, 1995).
(§3) Briefly, cells were harvested from exponential phase cultures by trypsinization, counted and plated in 96 well flat-bottomed microtitre plates at a cell density dependent on the cell line (5-10.000 viable cells/well). […] Each concentration was plated in triplicate. 39-Desmethoxyrapamycin was applied in two concentrations (0.001 mM and 0.01 mM).
(§4) Growth inhibition was expressed as treated/control×100 (% TIC). For active compounds, IC50 & IC70 values were estimated by plotting compound concentration versus cell viability.
(§5) In vitro evaluation of 39-desmethoxyrapamycin for anticancer activity in a panel of 12 human tumour cell lines in a monolayer proliferation assay was carried out as described as Protocol 1 in the general methods above using a modified propidium iodide assay.

[2] = tested on: 251L; experiment: as above; format: cell-based, human; conditions: 4 days, mean of duplicate experiments
Description: as §1, §2, §3, §4, §5

[3] = tested on: 394NL; experiment: as above; format: cell-based, human; conditions: 4 days, mean of duplicate experiments
Description: as §1, §2, §3, §4, §5

[4] = tested on: A498; experiment: as above; format: cell-based, human; conditions: 4 days, mean of duplicate experiments
Description: as §1, §2, §3, §4, §5

[5] = tested on: DU145; experiment: as above; format: cell-based, human; conditions: 4 days, mean of duplicate experiments
Description: as §1, §2, §3, §4, §5

[6] = tested on: H460; experiment: as above; format: cell-based, human; conditions: 4 days, mean of duplicate experiments
Description: as §1, §2, §3, §4, §5

[7] = tested on: LNCAP; experiment: as above; format: cell-based, human; conditions: 4 days, mean of duplicate experiments
Description: as §1, §2, §3, §4, §5

[8] = tested on: MCF7; experiment: as above; format: cell-based, human; conditions: 4 days, mean of duplicate experiments
Description: as §1, §2, §3, §4, §5

[9] = tested on: MDA231; experiment: as above; format: cell-based, human; conditions: 4 days, mean of duplicate experiments
Description: as §1, §2, §3, §4, §5

[10] = tested on: MDA468; experiment: as above; format: cell-based, human; conditions: 4 days, mean of duplicate experiments
Description: as §1, §2, §3, §4, §5

[11] = tested on: OVCAR3; experiment: as above; format: cell-based, human; conditions: 4 days, mean of duplicate experiments
Description: as §1, §2, §3, §4, §5

[12] = tested on: SF268; experiment: as above; format: cell-based, human; conditions: 4 days, mean of duplicate experiments
Description: as §1, §2, §3, §4, §5

[13] = tested on: panel of 12 human tumour cell lines; experiment: Monolayer proliferation assay Protocol 1, mean across the cell lines tested; format: cell-based
Description: as §1, §2, §3, §4, §5

[14] = Human Liver Microsomal (HLM) stability assay; format: in vitro ADME
Description: Liver homogenates provide a measure of a compounds inherent vulnerability to Phase I (oxidative) enzymes, including CYP450s (e.g. CYP2C8, CYP2D6, CYP1A, CYP3A4, CYP2E1), esterases, amidases and flavin monooxygenases (FMOs).
The half life (T½) of test compounds was determined, on exposure to Human Liver Microsomes, by monitoring their disappearance over time by LC-MS. Compounds at 0.001 mM were incubated at for 40 min at 37° C., 0.1 M Tris-HCl, pH 7.4 with human microsomal sub-cellular fraction of liver at 0.25 mg/mL protein and saturating levels of NADPH as co-factor. At timed intervals, acetonitrile was added to test samples to precipitate protein and stop metabolism. Samples were centrifuged and analysed for parent compound using analytical Method A (see Materials & Methods).

SMILES	Test/Control (%) at drug concentration ([1]; 1 μM)	Test/Control (%) at drug concentration ([1]; 10 μM)	Test/Control (%) at drug concentration ([2]; 1 μM)	Test/Control (%) at drug concentration ([2]; 10 μM)	Test/Control (%) at drug concentration ([3]; 1 μM)	Test/Control (%) at drug concentration ([3]; 10 μM)	Test/Control (%) at drug concentration ([4]; A498, 1 μM)	Test/Control (%) at drug concentration ([4]; A498, 10 μM)	Test/Control (%) at drug concentration ([5]; DU145, 1 μM)	Test/Control (%) at drug concentration ([5]; DU145, 10 μM)	Test/Control (%) at drug concentration ([6]; H460, 1 μM)	Test/Control (%) at drug concentration ([7]; 1 μM)	Test/Control (%) at drug concentration ([7]; 10 μM)	Test/Control (%) at drug concentration ([8]; MCF7, 1 μM)	Test/Control (%) at drug concentration ([8]; MCF7, 10 μM)	Test/Control (%) at drug concentration ([9]; MDA231, 1 μM)	Test/Control (%) at drug concentration ([9]; MDA231, 10 μM)	Test/Control (%) at drug concentration ([10]; MDA468, 1 μM)	Test/Control (%) at drug concentration ([10]; MDA468, 10 μM)	Test/Control (%) at drug concentration ([11]; OVCAR3, 1 μM)	further results
COC1CC2CCC(C)C(O)(O2)C(=O)C(=O)N2CCCCC2C(=O)OC(C(C)CC2CCC(O)CC2)CC(=O)C(C)C=C(C)C(O)C(OC)C(=O)C(C)CC(C)C=CC=CC=C1C (stereo not drawn) [39-desmethoxyrapamycin]	52%	9.5%	86%	32.5%	48%	40.5%	62.5%	43.5%	65.5%	44.5%	71%	74.5%	28.5%	92.5%	18.5%	68%	37.5%	65%	13.5%	77.5%	Test/Control (%) at drug concentration ([6]; H460, 10 μM): 55.5%; Test/Control (%) at drug concentration ([11]; OVCAR3, 10 μM): 62%; Test/Control (%) at drug concentration ([12]; SF268, 1 μM): 57.5%; Test/Control (%) at drug concentration ([12]; SF268, 10 μM): 23%; IC50 [13]: 3.25 µM; Mean IC70 [13]: 6.95 µM; metabolic stability compared to rapamycin [14]: increased metabolic stability; HLM stability: T½ min ([14]; 0.001 mM, 0.25 mg/mL protein, NADPH, 37° C.): 59 min
CO[C@H]1C[C@@H]2CC[C@@H](C)[C@@](O)(O2)C(=O)C(=O)N2CCCC[C@H]2C(=O)O[C@H]([C@H](C)C[C@@H]2CC[C@@H](O)[C@H](OC)C2)CC(=O)[C@H](C)/C=C(\C)[C@@H](O)[C@@H](OC)C(=O)[C@H](C)C[C@H](C)/C=C/C=C/C=C/1C [Rapamycin]	42%	21.5%	75.5%	40%	45%	44%	58.5%	48.5%	50.5%	54%	67%	61%	34%	68.5%	26.5%	67%	63.5%	56.5%	32%	69%	Test/Control (%) at drug concentration ([11]; OVCAR3, 10 μM): 69.5%; Test/Control (%) at drug concentration ([12]; SF268, 1 μM): 53.5%; Test/Control (%) at drug concentration ([12]; SF268, 10 μM): 46%; Mean IC70 [13]: 9.1 µM; IC50 ([13]; Homo sapiens): 3.5 µM; half-life at 0.001 mM ([14]; human, liver microsomes, pH 7.4, 0.001 mM, 0.25 mg/mL protein, NADPH, 37° C., read-out: HLM stability: T½ min): 40 min
